For data set [1], the system named is NHDF cells. Description: Immunofluorescence, mitotic spindle morphology. The data set is classed as cell-based, human. To be noted: 100 μM and 200 μM, 2.5 hr. An excerpt: Using IF, we next examined the mitotic phenotypes induced by CW069 in N1E-115 and NHDF cells, with a strong focus on centrosome numbers and mitotic spindle morphology. Antibodies against α-tubulin, CDK5RAP2, and DAPI were employed to visualize MTs, centrosomes, and DNA, respectively. We hypothesized that small-molecule inhibition of HSET would give rise to mitotic spindle defects similar to those reported after HSET knockdown by siRNA transfection ([Kwon et al., 2008]), and this was indeed the case. […] After treatment, the N1E-115 cells formed multipolar spindles due to a lack of centrosome clustering, consistent with HSET inhibition in cells with supernumerary centrosomes (Figure 4C).
[…] Prewarmed 4% paraformaldehyde in PBS was then added to each well to fix the cells before washing with PBS. Permeabilization and blocking was performed by incubating the slides with 1% BSA, 0.3% Triton X-100, 5% goat serum in PBS (PBS/B/0.3%T+5%GS) for 1 hr while shaking them at room temperature (RT). The slides were incubated with primary antibody solutions (mouse monoclonal anti-α-Tubulin [catalog number T9026; Sigma-Aldrich] and rabbit anti-CDK5RAP2 [catalog number A300-554A; Bethyl Laboratories]) at 4°C for 16 hr. […]

The test system of data set [2] is primary adult human bone marrow cells. Description: Colony-formation (CFU-GM) assay. To be noted: 85 μM, 100 μM, 150 μM. In kind it is cell-based.
The subject of the next data set is N1E-115 cells. Description: SRB growth-inhibition assay. The data set is classed as cell-based. The note with it: Mus musculus, N1E-115, 72 hr, 0.3 μM to 400 μM. The source says: (§1) We next assessed whether CW069 could selectively target proliferation in cancer cells. We used a combination of cell-growth-inhibition assays based on the Sulforhodamine-B (SRB) technique ([Vichai and Kirtikara, 2006]) and IncuCyte live-cell imaging. […] This further highlights that HSET inhibition, unlike that of KSP or CENP-E, provides a unique opportunity to selectively damage malignant cells without harming normal cells.
(§2) NHDF cells were obtained from PromoCell, and the N1E-115 and HeLa cells were obtained from ATCC/LGC Standards. The BT549, MCF-7 and MDA-MB-231 cells were kind gifts from the Caldas laboratory (CRUK Cambridge Institute) and were originally obtained from ATCC/LGC. All human cells were verified by STR genotyping and all tested negative for mycoplasma. Cells were cultured in Dulbecco’s modified Eagle’s medium (DMEM) supplemented with 10% fetal calf serum (FCS) at 37°C and 5% CO2. All compounds used in the Sulforhodamine B colorimetric (SRB) assay ([Vichai and Kirtikara, 2006]) were dissolved in DMSO and diluted in culture medium to a final concentration of 0.2% DMSO. For the SRB assay and live-cell imaging (using the IncuCyte Kinetic Live Cell Imaging System; Select Science), cells were seeded in 96-well plates at a density of 2,500 cells per well. […] Fluorescence was quantified using an Infinite 200 PRO plate-reader (Tecan) at a wavelength of 545 nm. […]

Data set [3] concerns NHDF cells. Description: SRB growth-inhibition assay. In kind it is cell-based. The note with it: Homo sapiens, 72 hr, 0.3 μM to 400 μM.
Source text: as §1, §2

The text below walks through data of PMC3898838, “Design, Synthesis, and Biological Evaluation of an Allosteric Inhibitor of HSET that Targets Cancer Cells with Supernumerary Centrosomes” (Chemistry & Biology, 2013).

As a reminder, the IC50 is the concentration at which inhibition is half-maximal.

For the molecule `O=C(O)c1cc(I)ccc1NC(=O)[C@H](Cc1ccccc1)NCc1ccccc1` [CW069], the mitotic spindle morphology entry in the data set on NHDF cells [1] was “unchanged compared with control”. In addition, the clonogenic capacity entry in data set [2] is “did not reduce the clonogenic capacity”. For the same molecule, the IC50 with N1E-115 cells amounted to 86 ± 10 µM; in the data set with NHDF cells [3], 181 ± 7 µM.
